These results are taken from US8778966B2, “Quinolinone derivatives as PARP and tank inhibitors” (Janssen Pharmaceutica, NV, priority 2007, dated 2014).

Test [1] relates to HCT116 cells. Kind of test: Antiproliferative activity, Alamar Blue assay, HCT116 cells. It counts as cell-based, human. The following applies: Homo sapiens, HCT-116, HCT116 cells; read-out: HCT116 antiproliferative activity pIC50 (converted). Here is the method: Human colon carcinoma HCT116 cells obtained from the ATCC were cultured in McCoy's 5 A medium supplemented with 2 mM L-Glutamine, 50 μg/ml gentamicin and 10% heat inactivated fetal calf serum.
Resazurin was purchased from Aldrich (Prod. No. 199303). Potassium ferrocyanide, potassium ferricyanide, KH2PO4 and K2HPO4 were purchased from Sigma (Prod. Nos. P9387, P8131, P5655 and P8281, respectively).
Potassium Phosphate Buffer 0.1 M (PPB) was made as follows: 2.72 gram KH2PO4 and 13.86 gram K2HPO4 were dissolved in 500 ml milli-Q H2O, the pH was adjusted to pH 7.4 and the volume was brought to 1 litre with milli-Q H2O; the buffer was filter sterilised and stored at room temperature. Resazurin stock solution (PPB-A) was prepared fresh by dissolving 45 mg resazurin in 15 ml PBS. 30 mM potassium ferricyanide (PPB-B) was prepared by dissolving 0.987 gram potassium ferricyanide in 100 ml PPB. 30 mM potassium ferrocyanide (PPB-C) was prepared by dissolving 1.266 gram potassium ferrocyanide in 100 ml PPB.
Mixture of PPB-A, PPB-B and PPB-C was prepared by mixing equal volumes of the respective solutions. Resazurin work solution (herein termed “Alamar Blue” solution) was prepared by diluting said mixture 20×(vol/vol) in PPB and filter sterilising; the Alamar Blue solution could be kept at 4° C. for a maximum of 2 weeks.
For experiments in 384 wells plates the cells were seeded at a density of 4.5×10^3 cells/ml in Falcon 384-well culture plates (Life Technologies, Merelbeke, Belgium), black with clear bottom, in 45 μl culture medium. Cells were allowed to adhere to plastic for 24 hr. The tested compound was pre-diluted (1/50 in culture medium) and 5 μl pre-diluted compound was added to the wells. Following 4-day incubation, 10 μl of the Alamar Blue solution was added to each well and the cells were further incubated for 4 hrs (HCT116) or 24 hrs (PC-3) at 37° C. The fluorescence intensity was measured for each well on a Fluorescence plate reader (Fluorskan, Labsystems, 540 nm excitation and 590 nm emission)
The antiproliferative activity was calculated as percentage of remaining viable cells in treated versus control (untreated cells) conditions. Within an experiment, the result for each experimental condition is the mean of 3 replicate wells. When appropriate, the experiments were repeated to establish full concentration-response curves. When appropriate, IC50-values (concentration of the drug, needed to reduce cell growth to 50% of the control) were computed using probit analysis for graded data (Finney, D. J., Probit Analyses, 2nd Ed. Chapter 10, Graded Responses, Cambridge University Press, Cambridge 1962). Herein the effects of test compounds are expressed as pIC50 (the negative log value of the IC50-value) (see Table 2).
Background: The colour change of resazurin is a common sign of viable cells or microbes.

The test system of test [2] is tubulin. Kind of test: Tubulin polymerization assay. The class given is biochemical. The arrangement: key: a compound showing 0 to 50% inhibition at 20 μM is reported as score 1; Score 2 compounds are defined as compound showing more than 50% inhibition at 20 μM and less than 50% inhibition at 5 μM; a compound showing more than 50% inhibition at 5 μM is reported as score 3. As to conditions: tested at 20 μM and 5 μM. Here is the method: The tubulin polymerization assay is an adaptation of an assay originally described by Bonne, D. et al. (J. Biol. Chem., 1985, 260:2819-25). The assay kit was purchased from Cytoskeleton, Inc. (catalogue number BK011) and the assay was performed as described by the supplier with the following modifications. The assay was run in a 384-well black Proxiplate (Perkin Elmer) and volumes were adapted accordingly. The reactions were carried out in a final volume of 10 μl. Compounds were added to 25 μl of the reaction mix in 96-well PP plates (Corning) on ice and 10 μl of this mixture was dispensed into duplicates of the 384-well Proxiplates pre-warmed to 37° C. in a Fluoroskan Ascent plate reader (Thermo Scientific). Fluorescence measurements were taken every minute for one hour. The maximum slope of each well was determined (linear regression through 4 consecutive points) and polymerization was calculated as a percentage of polymerization observed in the absence of compound. Compounds were first measured at a concentration of 20 μM and then at 5 μM for those showing more than 50% inhibition at 20 μM as compared to the polymerization observed in the absence of compound. Results are reported in Table F-2 as scores defined as: a compound showing 0 to 50% inhibition at 20 μM is reported as score 1; a compound showing more than 50% inhibition at 5 μM is reported as score 3.

Turning to `C#Cc1cccc(CC(C)(C#N)c2ccc3cc(CC)c(=O)[nH]c3c2)c1` (racemic) [Compound 168], the IC50 in test [1] is 31.6 nM. In the case of `CCc1cc2ccc([C@@](C)(C#N)CCOc3ccccc3)cc2[nH]c1=O` (single isomer, unassigned) [Compound 150], in test [2], the tubulin polymerisation score turned out to be 2. Moreover, the IC50 in test [1] is 794 nM. With `Cc1cc2ccc([C@@](C)(C#N)CCOc3ccccc3)cc2[nH]c1=O` (single isomer, unassigned) [Compound 164], in test [1], the IC50 is 1000 nM. Same read-out and setting: to `CCc1cc2ccc(C(C)(C#N)Cc3ccccc3Br)cc2[nH]c1=O` (stereo not shown) [Compound 104] belongs 398 nM; to `CCc1cc2ccc(C(C)(C#N)Cc3ccccc3C)cc2[nH]c1=O` (stereo not shown) [Compound 105], 251 nM; to `CCc1cc2ccc(C(C)(C#N)Cc3cccc(C)c3)cc2[nH]c1=O` (stereo not shown) [Compound 107], 200 nM. Consider `CCc1cc2ccc(C(C)(C#N)Cc3ccc(C(F)(F)F)cc3)cc2[nH]c1=O` (stereo not shown) [Compound 108], for which the IC50 in test [1] is 6310 nM. Consider `CCc1cc2ccc(C(C)(C#N)Cc3cccc(OC(F)(F)F)c3)cc2[nH]c1=O` (stereo not shown) [Compound 110], for which, in test [1], the IC50 is 158 nM. The same measure, in the same setting: to `CCc1cc2ccc(C(C)(C#N)Cc3ccc(C#N)cc3)cc2[nH]c1=O` (stereo not shown) [Compound 111] belongs 5010 nM; to `CCc1cc2ccc(C(C)(C#N)Cc3ccc(OC(F)(F)F)cc3)cc2[nH]c1=O` (stereo not shown) [Compound 114], 1580 nM; to `CCc1cc2ccc(C(C)(C#N)Cc3c(F)c(F)c(F)c(F)c3F)cc2[nH]c1=O` (stereo not shown) [Compound 116], 631 nM. For the molecule `CCc1cc2ccc(C(C)(C#N)Cc3ccc(Br)cc3)cc2[nH]c1=O` (stereo not shown) [Compound 118], in test [1], the IC50 was 2000 nM. For the molecule `CCc1cc2ccc(C(C)(C#N)Cc3ccc(OC)cc3)cc2[nH]c1=O` (stereo not shown) [Compound 119], in test [1], the IC50 was 2000 nM. As for `CCc1cc2ccc(C(C)(C#N)Cc3cccc(F)c3F)cc2[nH]c1=O` (stereo not shown) [Compound 120], in test [1], the IC50 was 251 nM.

Turning to `CCc1cc2ccc(C(C)(C#N)Cc3cccc(Cl)c3Cl)cc2[nH]c1=O` (stereo not shown) [Compound 121], the IC50 in test [1] was 158 nM. For the molecule `CCc1cc2ccc(C(C)(C#N)Cc3ccc4ccccc4c3)cc2[nH]c1=O` (stereo not shown) [Compound 122], the IC50 in test [1] is 251 nM. On the same count and under the same terms, for `CCc1cc2ccc(C(C)(C#N)Cc3ccc4c(c3)nnn4C)cc2[nH]c1=O` (stereo not shown) [Compound 123] the value was 3980 nM. Regarding `CCc1cc2ccc(C(C)(C#N)Cc3ccc4c(c3)OCCO4)cc2[nH]c1=O` (stereo not shown) [Compound 124], in test [1], the IC50 was 501 nM. The same measure, in the same setting: for `CCc1cc2ccc(C(C)(C#N)Cc3cc(C)cc(C)c3)cc2[nH]c1=O` (stereo not shown) [Compound 125] the value was 200 nM; for `CCc1cc2ccc(C(C)(C#N)Cc3cc(F)cc(C(F)(F)F)c3)cc2[nH]c1=O` (stereo not shown) [Compound 127], 501 nM; for `CCc1cc2ccc(C(C)(C#N)Cc3cccc(S(C)(=O)=O)c3)cc2[nH]c1=O` (stereo not shown) [Compound 129], 1580 nM.

For the molecule `CCc1cc2ccc(C(C)(C#N)Cc3cc(C(F)(F)F)cc(C(F)(F)F)c3)cc2[nH]c1=O` (stereo not shown) [Compound 131], in test [1], the IC50 is 6310 nM. Still for that read-out and setting: for `CCc1cc2ccc(C(C)(C#N)Cc3cccc(C)c3F)cc2[nH]c1=O` (stereo not shown) [Compound 132] the value was 398 nM; for `CCc1cc2ccc(C(C)(C#N)Cc3cc(Br)cc(Br)c3)cc2[nH]c1=O` (stereo not shown) [Compound 133], 251 nM. In the case of `CCc1cc2ccc(C(C)(C#N)Cc3cccc(C(F)(F)F)c3F)cc2[nH]c1=O` (stereo not shown) [Compound 134], the IC50 in test [1] is 501 nM. Same read-out and setting: to `CCc1cc2ccc(C(C)(C#N)Cc3c(Cl)cccc3Cl)cc2[nH]c1=O` (stereo not shown) [Compound 135] belongs 316 nM.

On to `CCc1cc2ccc(C(C)(C#N)Cc3c(Cl)cccc3Br)cc2[nH]c1=O` (stereo not shown) [Compound 136], for which the IC50 in test [1] is 316 nM. Still for that read-out and setting: for `CCc1cc2ccc(C(C)(C#N)Cc3ccc(F)cc3Br)cc2[nH]c1=O` (stereo not shown) [Compound 139] the value was 126 nM; for `CCc1cc2ccc(C(C)(C#N)Cc3cccc(Cl)c3)cc2[nH]c1=O` (stereo not shown) [Compound 140], 200 nM. In the case of `CCc1cc2ccc(C(C)(C#N)Cc3cc(Cl)cc(Cl)c3)cc2[nH]c1=O` (stereo not shown) [Compound 141], the IC50 in test [1] was 126 nM.

`CCOc1ccccc1OCCC(C)(C#N)c1ccc2cc(CC)c(=O)[nH]c2c1` (stereo not shown) [Compound 142]: the IC50 in test [1] was 316 nM. As to `CCc1cc2ccc(C(C)(C#N)CCOc3ccc(F)cc3)cc2[nH]c1=O` (stereo not shown) [Compound 144], in test [1], the IC50 is 501 nM. `CCc1cc2ccc(C(C)(C#N)CCOc3ccccc3)cc2[nH]c1=O` (stereo not shown) [Compound 145]: the IC50 in test [1] was 398 nM.

Consider `CCc1cc2ccc(C(C)(C#N)CCOc3ccc(Cl)cc3)cc2[nH]c1=O` (stereo not shown) [Compound 146], for which the IC50 in test [1] was 398 nM.

Consider `CCc1cc2ccc(C(C)(C#N)CCOc3ccc(OC)cc3)cc2[nH]c1=O` (stereo not shown) [Compound 147], for which, in test [1], the IC50 was 501 nM. Take `CCc1cc2ccc(C(C)(C#N)CCOc3ccc(Cl)cc3Cl)cc2[nH]c1=O` (stereo not shown) [Compound 154]: the IC50 in test [1] was 398 nM.

Turning to `CCc1cc2ccc(C(C)(C#N)CCOc3ccc(SC)cc3)cc2[nH]c1=O` (stereo not shown) [Compound 155], in test [1], the IC50 is 6310 nM. On the same count and under the same terms, to `CCc1cc2ccc(C(C)(C#N)CC3CN(C)c4ccccc4O3)cc2[nH]c1=O` (stereo not shown) [Compound 156] belongs 2000 nM. The same measure, in the same setting: for `CCc1cc2ccc(C(C)(C#N)CCOc3ccc4ccccc4c3)cc2[nH]c1=O` (stereo not shown) [Compound 157] the value was 1580 nM; for `CCc1cc2ccc(C(C)(C#N)CCOc3cccc4ccccc34)cc2[nH]c1=O` (stereo not shown) [Compound 158], 1260 nM; for `CCc1cc2ccc(C(C)(C#N)CCOc3ccccc3C(C)=O)cc2[nH]c1=O` (stereo not shown) [Compound 159], greater than 10000 nM. The same measure, in the same setting: to `CCc1cc2ccc(C(C)(C#N)CCOc3ccc(Br)cc3)cc2[nH]c1=O` (stereo not shown) [Compound 160] belongs 2000 nM; to `CCc1cc2ccc(C(C)(C#N)CCOc3ccc4oc(C)c(C)c4c3)cc2[nH]c1=O` (stereo not shown) [Compound 162], greater than 10000 nM; to `CCc1cc2ccc(C(C)(C#N)Cc3cccc(CCC#N)c3)cc2[nH]c1=O` (stereo not shown) [Compound 165], 631 nM. As to `CCc1cc2ccc(C(C#N)(CCOc3ccccc3)C3CC3)cc2[nH]c1=O` (stereo not shown) [Compound 166], the IC50 in test [1] was 10000 nM. With `CCc1cc2ccc(C(C)(C#N)CCOc3ccc(C(C)(C)C)cc3)cc2[nH]c1=O` (stereo not shown) [Compound 167], in test [1], the IC50 was greater than 10000 nM. Same read-out and setting: for `CCc1cc2ccc(C(C)(C#N)CC#Cc3cccc(F)c3)cc2[nH]c1=O` (stereo not shown) [Compound 184] the value was 3160 nM; for `Cc1cc2ccc([C@@](C)(C#N)[C@@H]3CCc4cc(C#N)ccc43)cc2[nH]c1=O` [Compound 245], 6310 nM; for `CCc1cc2ccc(C(C#N)(CC)CCOc3ccc(C#N)cc3)cc2[nH]c1=O` (stereo not shown) [Compound 271], 1580 nM. Regarding `Cc1cc2ccc([C@@](C)(C#N)[C@H]3CCc4cc(C#N)ccc43)cc2[nH]c1=O` [Compound 389], the IC50 in test [1] was 200 nM. The same measure, in the same setting: for `CCc1cc2ccc(C(C#N)(CC)C3CCc4ccc(F)cc43)cc2[nH]c1=O` (stereo not shown) [Compound 391] the value was 631 nM.
